{"source": "patent US5543392A", "about": "“Digestive tract cell activating agent of EGF and lactoferrin” (Morinaga Milk Industry Co., Ltd., priority 1992, dated 1996)", "key": {"IEC18 cells [1]": {"test_system": "IEC18 cells", "assay": "Test 1: DNA synthesis acceleration activity of EGF (3H-thymidine incorporation)", "format": "cell-based, rat", "conditions": "for Quantity of incorporated 3H thymidine, average value (n = 4): 18 h, 1% FBS-DMEM", "experimental": "This test was carried out to determine an optimum concentration for DNA synthesis acceleration activity of EGF relative to small intestine epithelial cells.\nIEC18 cells (purchased from the American Type Culture Collection) which are epithelial crypt-cells of rat small intestine were inoculated into a 24-well culture plate by 10,000 cells per hole and cultured with Dulbecco modified Eagle's medium containing 10% fetal bovine serum (hereinafter abbreviated as \"10% FBS-DMEM\") until the cells became confluence (1 ml of medium was used per well). Then, the medium was replaced with 1% FBS-DMEM culture was conducted for another three days to introduce the cell cycle into the resting phase. The medium was replaced with of 1% FBS-DMEM (0.5 ml) containing EGF at various concentrations and culture was conducted for 18 hours. Then, the medium was replaced with DME (0.35 ml) containing ^3 H-thymidine (tritium labeling: thymidine 1 micro curie/ml), the cultuure was conducted for another two hours. The result cells were rinsed twice with phosphate-buffered saline [PBS (-), 2 ml], then, ice-cooled 5% trifluoroacetic acid (5% TFA, 2 ml) was added. This was stored in a refrigerator for an hour. The cells were washed twice with 5% TFA (2 ml) and 1N NaOH (0.4 ml) was added. By holding this at 37° C. for an hour, the cells were dissolved. Then, the solution was neutralized by adding 6N HCl (0.08 ml), and therefore, the quantity of ^3 H-thymidine incorporated into DNA was measured by means of a liquid scintillation counter."}, "IEC18 cells [2]": {"test_system": "IEC18 cells", "assay": "Test 3: proliferation of small intestine epithelial cells (cell count by hemocytometer)", "format": "cell-based, rat", "conditions": "single addition of 10 ng/ml EGF; ten days culture; versus control group with no addition", "experimental": "ICE18 cells (the same ones as in the Test 1) were inoculated onto a 24-well culture plate by 5,000 cells per well, and were cultured for ten days with 1% FBS DMEM (0.5 ml) containing the following test subjects. During this test period, the medium was replaced on the third and the sixth days, and the number of cells was measured on the third, the sixth and the tenth days. The number of cells was counted by a hemocytometer after treating the cells with 0.25% trypsin solution and suspending them in the solution.\nThe test subjects included a sample added with nothing, a sample added with 10 ng/ml EGF, a sample added with 50 μg/ml bLf or bLf-Hy, and a sample added with 10 ng/ml EGF and 50 μg/ml bLf or bLf-Hy."}}, "data": [{"substance": "EGF: Commercially available mouse submaxillary gland originating EGF (manufactured by Takara Shuzo Company) (NSYPGCPSSYDGYCLNGGVCMHIESLDSYTCNCVIGYSGDRCQTRDLRWWELR; not fully specified; Epidermal growth factor; UniProt P01132 977-1029, looked up)", "values": [{"measurement": "Quantity of incorporated 3H thymidine, average value (n = 4)", "setting": "IEC18 cells [1]; EGF concentration 0.08 ng/ml", "value": 17874, "unit": "cpm"}, {"measurement": "Quantity of incorporated 3H thymidine, average value (n = 4)", "setting": "IEC18 cells [1]; EGF concentration 0.2 ng/ml (so in the source)", "value": 25398, "unit": "cpm"}, {"measurement": "Quantity of incorporated 3H thymidine, average value (n = 4)", "setting": "IEC18 cells [1]; EGF concentration 0.4 ng/ml", "value": 19644, "unit": "cpm"}, {"measurement": "Quantity of incorporated 3H thymidine, average value (n = 4)", "setting": "IEC18 cells [1]; EGF concentration 10.0 ng/ml", "value": 26152, "unit": "cpm"}, {"measurement": "Quantity of incorporated 3H thymidine, average value (n = 4)", "setting": "IEC18 cells [1]; EGF concentration 50.0 ng/ml", "value": 22665, "unit": "cpm"}, {"measurement": "optimum working concentration of EGF for DNA synthesis", "setting": "IEC18 cells [1]; IEC18 cells", "value": 10, "unit": "ng/mL"}, {"measurement": "number of cells (FIGS. 3 and 4)", "setting": "IEC18 cells [2]", "value": "absence of effect"}]}]}
